Reference: ChEMBL document CHEMBL1909046, “DrugMatrix in vitro pharmacology data”
*1 amine or outer side, *2 acyl side, *3 side chain or, on linkers, in order; H or OH if unused. Where a SMILES comes first, the peptide text is derived from it. Bridges are numbered along the chain shown (N, C = ends). Roman numbers before positions name the chains, in order. [ ]: non-standard residue; d: D form. Actinocin(1to9) = Cc1c2oc3c(C)ccc(C(=O)[*:2])c3nc-2c(C(=O)[*:1])c(N)c1=O; NMeV = CN[C@H](C(=O)O)C(C)C; Sar = CNCC(=O)O

Experiments:
Androgen receptor = molecular target: T1, Androgen receptor (Rattus norvegicus, UniProt P15207); also: in other assays of this panel Not Active means under 50% inhibition at 10 µM
T1 sequence (P15207 whole entry): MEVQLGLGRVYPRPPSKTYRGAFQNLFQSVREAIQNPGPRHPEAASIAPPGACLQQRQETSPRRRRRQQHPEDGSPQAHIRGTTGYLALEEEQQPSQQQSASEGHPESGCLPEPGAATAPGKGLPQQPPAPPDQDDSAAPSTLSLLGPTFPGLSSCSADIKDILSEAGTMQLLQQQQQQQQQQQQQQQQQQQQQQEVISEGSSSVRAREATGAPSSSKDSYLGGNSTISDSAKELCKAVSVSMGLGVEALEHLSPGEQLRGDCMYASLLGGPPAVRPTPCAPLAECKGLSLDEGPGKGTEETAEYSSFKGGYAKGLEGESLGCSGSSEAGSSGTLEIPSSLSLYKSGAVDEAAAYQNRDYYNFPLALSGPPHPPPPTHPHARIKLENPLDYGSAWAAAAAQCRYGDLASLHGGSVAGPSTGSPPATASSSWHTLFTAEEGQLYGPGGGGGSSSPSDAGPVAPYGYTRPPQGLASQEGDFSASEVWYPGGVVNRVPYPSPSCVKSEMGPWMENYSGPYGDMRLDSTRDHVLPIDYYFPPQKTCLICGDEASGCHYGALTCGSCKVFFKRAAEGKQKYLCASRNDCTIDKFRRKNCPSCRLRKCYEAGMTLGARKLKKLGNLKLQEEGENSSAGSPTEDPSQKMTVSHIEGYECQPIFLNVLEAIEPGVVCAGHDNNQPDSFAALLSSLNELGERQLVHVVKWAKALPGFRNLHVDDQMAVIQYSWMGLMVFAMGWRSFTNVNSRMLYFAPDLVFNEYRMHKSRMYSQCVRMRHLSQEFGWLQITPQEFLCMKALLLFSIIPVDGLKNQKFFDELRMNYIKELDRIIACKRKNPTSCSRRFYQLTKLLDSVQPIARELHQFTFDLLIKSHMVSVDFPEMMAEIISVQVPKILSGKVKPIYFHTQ

Melanocortin receptor 5 = Melanocortin receptor 5 (Homo sapiens, UniProt P33032); format: cell membranes, HEK293, Membrane; conditions: hek293; also: in other assays of this panel Not Active means under 50% inhibition at 10 µM
[1] = DRUGMATRIX: Calcium Channel Type L, Phenylalkylamine radioligand binding (ligand: [3H] (-)-Desmethoxyverapamil (D-888)); format: cell membranes, Rattus norvegicus, Wistar, Brain, Membrane; conditions: Not Active = under 50% inhibition at 10 µM
Cytochrome P450 2D6 = Cytochrome P450 2D6 (Homo sapiens, UniProt P10635); also: in other assays of this panel Not Active means under 50% inhibition at 10 µM
Cytochrome P450 1A2 = molecular target: T2, Cytochrome P450 1A2 (Homo sapiens, UniProt P05177); also: in other assays of this panel Not Active means under 50% inhibition at 10 µM
T2 sequence (P05177 whole entry): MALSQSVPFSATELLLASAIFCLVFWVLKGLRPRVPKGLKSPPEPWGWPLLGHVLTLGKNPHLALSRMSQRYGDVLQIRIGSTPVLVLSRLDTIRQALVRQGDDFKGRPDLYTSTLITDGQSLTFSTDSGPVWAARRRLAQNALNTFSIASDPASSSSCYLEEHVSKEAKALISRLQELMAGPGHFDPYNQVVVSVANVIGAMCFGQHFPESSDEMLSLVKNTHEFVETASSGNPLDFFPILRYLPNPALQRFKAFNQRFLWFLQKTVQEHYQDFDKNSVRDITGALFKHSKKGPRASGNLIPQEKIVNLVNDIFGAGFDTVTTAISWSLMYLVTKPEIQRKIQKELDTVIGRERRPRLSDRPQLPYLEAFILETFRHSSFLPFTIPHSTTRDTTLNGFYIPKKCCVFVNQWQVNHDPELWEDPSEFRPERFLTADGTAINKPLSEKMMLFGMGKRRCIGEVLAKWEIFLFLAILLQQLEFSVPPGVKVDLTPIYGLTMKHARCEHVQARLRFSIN

Cytochrome P450 2C19 = Cytochrome P450 2C19 (Homo sapiens, UniProt P33261); also: in other assays of this panel Not Active means under 50% inhibition at 10 µM
Glucocorticoid receptor = molecular target: T3, Glucocorticoid receptor (Homo sapiens, UniProt P04150); assay: biochemical; also: in other assays of this panel Not Active means under 50% inhibition at 10 µM
T3 sequence (P04150 whole entry): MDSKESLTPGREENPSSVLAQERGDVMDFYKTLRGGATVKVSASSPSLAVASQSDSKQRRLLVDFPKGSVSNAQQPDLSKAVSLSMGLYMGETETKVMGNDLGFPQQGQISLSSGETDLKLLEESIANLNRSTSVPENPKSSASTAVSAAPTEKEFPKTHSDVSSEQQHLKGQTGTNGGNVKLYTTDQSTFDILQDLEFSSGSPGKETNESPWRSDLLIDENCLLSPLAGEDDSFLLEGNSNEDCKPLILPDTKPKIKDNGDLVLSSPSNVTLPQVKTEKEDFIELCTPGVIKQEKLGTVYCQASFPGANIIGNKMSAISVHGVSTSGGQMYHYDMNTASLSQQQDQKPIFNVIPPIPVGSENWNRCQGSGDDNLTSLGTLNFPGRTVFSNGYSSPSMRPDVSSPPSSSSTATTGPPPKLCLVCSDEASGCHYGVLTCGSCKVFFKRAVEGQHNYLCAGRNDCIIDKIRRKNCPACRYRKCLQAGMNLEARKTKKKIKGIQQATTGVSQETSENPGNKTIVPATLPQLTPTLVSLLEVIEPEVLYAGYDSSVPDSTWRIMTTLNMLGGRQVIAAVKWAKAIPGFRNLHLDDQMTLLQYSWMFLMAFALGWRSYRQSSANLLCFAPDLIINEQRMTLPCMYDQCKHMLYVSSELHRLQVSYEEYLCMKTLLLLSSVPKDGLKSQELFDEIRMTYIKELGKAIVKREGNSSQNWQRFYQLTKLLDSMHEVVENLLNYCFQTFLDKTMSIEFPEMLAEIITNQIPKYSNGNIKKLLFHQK

Chain of Cytochrome P450 2D6 (P10635 whole entry): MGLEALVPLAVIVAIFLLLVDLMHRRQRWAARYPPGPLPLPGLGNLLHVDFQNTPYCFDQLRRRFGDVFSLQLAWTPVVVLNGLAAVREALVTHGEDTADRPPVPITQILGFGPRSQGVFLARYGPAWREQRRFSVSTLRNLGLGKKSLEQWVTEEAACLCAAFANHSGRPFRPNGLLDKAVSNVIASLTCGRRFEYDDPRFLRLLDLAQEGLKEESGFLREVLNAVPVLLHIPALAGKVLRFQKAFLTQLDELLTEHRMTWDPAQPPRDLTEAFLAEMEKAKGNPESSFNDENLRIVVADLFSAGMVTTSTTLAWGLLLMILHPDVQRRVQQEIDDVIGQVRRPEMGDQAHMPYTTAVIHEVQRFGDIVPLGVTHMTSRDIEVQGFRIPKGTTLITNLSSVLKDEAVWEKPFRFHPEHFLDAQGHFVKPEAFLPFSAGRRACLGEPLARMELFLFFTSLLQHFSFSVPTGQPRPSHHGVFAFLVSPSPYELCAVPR
Chain of Melanocortin receptor 5 (P33032 whole entry): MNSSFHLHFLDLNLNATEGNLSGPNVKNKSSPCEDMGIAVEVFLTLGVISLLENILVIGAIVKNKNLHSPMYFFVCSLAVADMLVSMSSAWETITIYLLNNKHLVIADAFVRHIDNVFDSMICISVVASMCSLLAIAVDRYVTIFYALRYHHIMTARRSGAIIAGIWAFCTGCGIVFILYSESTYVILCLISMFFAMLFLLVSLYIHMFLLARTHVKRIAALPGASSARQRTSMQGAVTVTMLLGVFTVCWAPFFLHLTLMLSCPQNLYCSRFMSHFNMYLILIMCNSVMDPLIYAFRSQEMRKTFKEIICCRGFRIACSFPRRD
Chain of Cytochrome P450 2C19 (P33261 whole entry): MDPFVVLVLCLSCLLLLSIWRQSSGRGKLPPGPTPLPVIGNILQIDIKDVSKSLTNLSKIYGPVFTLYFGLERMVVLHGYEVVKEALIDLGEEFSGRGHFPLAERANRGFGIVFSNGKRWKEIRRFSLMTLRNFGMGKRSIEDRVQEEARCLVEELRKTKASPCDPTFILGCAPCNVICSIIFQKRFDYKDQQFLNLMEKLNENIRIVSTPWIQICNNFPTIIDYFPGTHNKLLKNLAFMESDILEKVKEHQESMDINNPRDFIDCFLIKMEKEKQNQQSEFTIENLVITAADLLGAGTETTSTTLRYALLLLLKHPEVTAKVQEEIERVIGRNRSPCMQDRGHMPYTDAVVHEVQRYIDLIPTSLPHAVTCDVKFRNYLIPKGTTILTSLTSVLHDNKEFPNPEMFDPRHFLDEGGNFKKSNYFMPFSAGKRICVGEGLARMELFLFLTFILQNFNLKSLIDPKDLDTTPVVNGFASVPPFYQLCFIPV

| Molecule | IC50 (Androgen receptor) | IC50 (Melanocortin receptor 5) | IC50 [1] | Ki [1] | other results |
| --- | --- | --- | --- | --- | --- |
| CC(C)(C)NCC(O)c1cc(Cl)c(N)c(Cl)c1 (configuration not stated) [CLENBUTEROL] | Not Active | Not Active | Not Active | Not Active |  |
| CCOc1ccc(NC(C)=O)cc1 [PHENACETIN] | Not Active | Not Active | Not Active | Not Active |  |
| O=c1oc2ccccc2c(O)c1Cc1c(O)c2ccccc2oc1=O [DICUMAROL] | Not Active | Not Active | Not Active | Not Active |  |
| Cc1onc(O)c1CC(N)C(=O)O (racemic) [(R,S)-AMPA] | Not Active | Not Active | Not Active | Not Active |  |
| CC1=C2C(=CO[C@H](C)[C@H]2C)C(O)=C(C(=O)O)C1=O [CITRININ] | Not Active | Not Active | Not Active | Not Active |  |
| Cc1ccc(N(CC2=NCCN2)c2cccc(O)c2)cc1 [PHENTOLAMINE] |  | Not Active |  |  | IC50 (Cytochrome P450 2D6): 10000 nM; IC50 ([1]; read-out: IC50): 746 nM; Ki ([1]; read-out: Ki): 725 nM |
| C1CCC(C(CC2CCCCN2)C2CCCCC2)CC1 (configuration not stated) [PERHEXILINE] | Not Active | Not Active |  |  | IC50 (Cytochrome P450 2D6): 941 nM; IC50 ([1]; read-out: IC50): 1350 nM; Ki ([1]; read-out: Ki): 1310 nM |
| CC(C)CN(C[C@@H](O)[C@H](Cc1ccccc1)NC(=O)O[C@H]1CCOC1)S(=O)(=O)c1ccc(N)cc1 | Not Active | Not Active | Not Active | Not Active |  |
| Cc1ccc2cc3c(ccc4ccccc43)c3c2c1CC3 [3-METHYLCHOLANTHRENE] |  | Not Active | Not Active | Not Active | IC50 (Cytochrome P450 1A2): 300 nM |
| CN(C)C(=O)Oc1cc(OC(=O)N(C)C)cc(C(O)CNC(C)(C)C)c1 (configuration not stated) [BAMBUTEROL] | Not Active | Not Active | Not Active | Not Active | IC50 (Cytochrome P450 2D6): 2000 nM |
| Cc1ccc(-c2cc(C(F)(F)F)nn2-c2ccc(S(N)(=O)=O)cc2)cc1 [CELECOXIB] | Not Active | Not Active | Not Active | Not Active | IC50 (Cytochrome P450 2D6): 1000 nM |
| CCC1(c2ccc(N)cc2)CCC(=O)NC1=O (configuration not stated) [AMINOGLUTETHIMIDE] | Not Active | Not Active | Not Active | Not Active |  |
| C[C@H](CS)C(=O)N1CCC[C@H]1C(=O)O [CAPTOPRIL] | Not Active | Not Active | Not Active | Not Active |  |
| CCCCN1CCCC[C@H]1C(=O)Nc1c(C)cccc1C [LEVOBUPIVACAINE] | Not Active | Not Active | Not Active | Not Active | IC50 (Cytochrome P450 2D6): 196 nM |
| Cc1c2oc3c(C)ccc(C(=O)N[C@@H]4C(=O)N[C@H](C(C)C)C(=O)N5CCC[C@H]5C(=O)N(C)CC(=O)N(C)[C@@H](C(C)C)C(=O)O[C@@H]4C)c3nc-2c(C(=O)N[C@@H]2C(=O)N[C@H](C(C)C)C(=O)N3CCC[C@H]3C(=O)N(C)CC(=O)N(C)[C@@H](C(C)C)C(=O)O[C@@H]2C)c(N)c1=O [DACTINOMYCIN] (I: T[dV]P[Sar][NMeV] / II: T[dV]P[Sar][NMeV]; ester I:1-I:C, II:1-II:C; linker I:N-II:N via Actinocin(1to9)) | Not Active | Not Active | Not Active | Not Active |  |
| CN(Cc1ccc(C(C)(C)C)cc1)Cc1cccc2ccccc12 [BUTENAFINE] |  | Not Active | Not Active | Not Active | IC50 (Cytochrome P450 2D6): 300 nM |

| Molecule | IC50 (Androgen receptor) | IC50 (Melanocortin receptor 5) | IC50 [1] | Ki [1] | other results |
| --- | --- | --- | --- | --- | --- |
| C[C@H]1O[C@@H](O[C@H]2[C@@H](O)C[C@H](O[C@H]3[C@@H](O)C[C@H](O[C@H]4CC[C@@]5(C)[C@H](CC[C@@H]6[C@@H]5C[C@@H](O)[C@]5(C)[C@@H](C7=CC(=O)OC7)CC[C@]65O)C4)O[C@@H]3C)O[C@@H]2C)C[C@H](O)[C@@H]1O [DIGOXIN] | Not Active | Not Active | Not Active | Not Active |  |
| Nc1c(Br)cc(Br)cc1CN[C@H]1CC[C@H](O)CC1 [AMBROXOL] | Not Active | Not Active | Not Active | Not Active |  |
| NC(=O)N1c2ccccc2CCc2ccccc21 | Not Active | Not Active | Not Active | Not Active |  |
| C=C(C)C1(O)OC(=O)C=C1OC (configuration not stated) [PENICILLIC ACID] | Not Active |  | Not Active | Not Active | Ki (Melanocortin receptor 5): Not Active |
| LIPOPOLYSACCHARIDE E. COLI O55:B5 | Not Active | Not Active | Not Active | Not Active | Ki (Androgen receptor): Not Active; Ki (Melanocortin receptor 5): Not Active |
| CC(NC(C)(C)C)C(=O)c1cccc(Cl)c1 (configuration not stated) [BUPROPION] |  | Not Active | Not Active | Not Active | IC50 (Cytochrome P450 2C19): 2000 nM |
| CADMIUM ACETATE | Not Active | Not Active | Not Active | Not Active | Ki (Androgen receptor): Not Active; Ki (Melanocortin receptor 5): Not Active |
| CNCCCN1c2ccccc2CCc2ccccc21 [DESIPRAMINE] | Not Active | Not Active | Not Active | Not Active |  |
| C[C@]12CCC(=O)C=C1CC[C@@H]1[C@@H]2CC[C@@]2(C)[C@H]1CC[C@]2(C)O [METHYLTESTOSTERONE] |  | Not Active | Not Active | Not Active | IC50 (Glucocorticoid receptor): 1840 nM; Ki (Glucocorticoid receptor): 838 nM |
| Nc1ncn([C@@H]2O[C@H](CO)[C@@H](O)[C@H]2O)c(=O)n1 [AZACITIDINE] | Not Active | Not Active | Not Active | Not Active |  |
| CCCN1C[C@H](CSC)C[C@@H]2c3cccc4[nH]cc(c34)C[C@H]21 [PERGOLIDE] |  | Not Active |  |  | IC50 (Cytochrome P450 2D6): 200 nM; IC50 ([1]; read-out: IC50): 913 nM; Ki ([1]; read-out: Ki): 887 nM |
| c1ccc2c(c1)c1cccc3ccc4cccc2c4c31 [BENZO[E]PYRENE] | Not Active | Not Active | Not Active | Not Active | IC50 (Cytochrome P450 1A2): 100 nM |
| LEAD (II) ACETATE | Not Active | Not Active | Not Active | Not Active | Ki (Androgen receptor): Not Active; Ki (Melanocortin receptor 5): Not Active |
| C[C@H]1c2cccc(O)c2C(=O)C2=C(O)[C@]3(O)C(=O)C(C(N)=O)=C(O)[C@@H](N(C)C)[C@@H]3[C@@H](O)[C@@H]21.O [DOXYCYCLINE] |  | Not Active | Not Active | Not Active |  |
| COc1ccc(C[C@H]2NC[C@H](O)[C@H]2OC(C)=O)cc1 [ANISOMYCIN] | Not Active | Not Active | Not Active | Not Active | Ki (Androgen receptor): Not Active; Ki (Melanocortin receptor 5): Not Active |
